Results as given in patent US20180236016A1, “NEUROTRANSMITTER AND BRAIN MODULATING ORAL DELIVERY SYSTEM FOR ENHANCEMENT OF COGNITIVE FUNCTIONS AND ENERGY” (Steady Nutrition LLC, priority 2017, published 2018).

Legend:
[1] = cited from earlier work
[2] = in vivo; cited from earlier work
[3] = Sedimentation / precipitation of theobromine in the filled product; assay type: physicochemical; settings: in the emulsions of Example 3
Procedure: 2000 ml of conventional water based energy drink supplements were produced by blending all ingredients below, heating to 170 F and cooling to ambient temperature. About 30 ml of each composition were filled into HDPE plastic bottles. Example 1A contained 210 mg caffeine, 460 mg taurine, 120 mg N Acetyl L-Tyrosine, 300 mg glucuronolactone/30 ml serving. The water activity was 0.95; water content was 86% and pH of 2.90. […] Products were filled into 30 ml HDPE bottles and capped.
For each formulation, 1000 g batches were made. Milk fat and cocoa butter were weighted up and pre-blended at the specified amounts, then heated up to 130 F in a processing vessel. Water, mono and diglycerides, sugar, glycerin, cocoa powder and other optional ingredients were added Caffeine, theobromine, glucuronolactone, taurine and N acetyl L-tyrosine were mixed in. The admixture was heated up to 170-180 F for about 5 minutes and then cooled to 100 F. The water activity was adjusted to 0.85 or lower by the addition of glycerin. The entire admixture was homogenized at 1,000 psi for example 3A and at to 3,000 psi for example 3B and 3C. […] Water activity readings were 0.81, 0.82 and 0.72 for example 3A, 3B and 3C respectively. The pH readings were 5.8, 5.3 and 6.7 for example 3A, 3B and 3C respectively. Viscosity readings were 110, 170 and 250 centipoise for example 3A, 3B and 3C respectively.

| Compound | fat / lipid solubility [1] | water solubility [1] | impact is felt in [2] [min] | precipitation of theobromine [3] | half-life [2] [h] |
| --- | --- | --- | --- | --- | --- |
| Phosphatidylcholine | only lipid soluble | not water soluble | – | – | – |
| Cn1c(=O)c2c(ncn2C)n(C)c1=O [caffeine, reference compound] | – | – | 15 to 30 | – | – |
| Phosphatidylserine [PS] | only lipid soluble | not water soluble | – | – | – |
| Cn1cnc2c1c(=O)[nH]c(=O)n2C [theobromine] | – | not water soluble | – | not precipitated | 7 to 12 |
